In one series the test system is immobility time. The experiment in a line: Forced swim test (FST, Porsolt's test) in mice. It is filed as in vivo. The conditions noted are these: 60 min before test. As to the method: (§1) The behavioral experiments were performed on male BalbC mice weighing 20–25 g, n = 333. The animals were purchased from the Animal House at the Faculty of Pharmacy, Jagiellonian University Medical College, Krakow, Poland. Mice were kept in groups of ten in Makrolon type 3 cages (dimensions 26.5 × 15 × 42 cm). The animals were kept in an environmentally controlled room (ambient temperature 22 ± 2 °C; relative humidity 50–60%; 12:12 light: dark cycle; and lights on at 8:00). They were allowed to acclimatize with the environment enriched by nesting material, tooth grinding material, houses, and toys for 1 week before commencement of the experiments. During acclimatization, mice were accustomed to the presence of female experimenters and their appropriate manner of animals’ restraint, i.e., cupping each separate mouse in open hands, according to the 3Rs recommendations (handling).[50],[51] Standard laboratory food (Sniff M-Z) and filtered water were freely available. All the experiments were conducted in the light phase between 9 AM and 2 PM. Experimental groups consisted of 6–10 randomly selected animals, depending on the experiment, and each animal was used only once. The experiments were performed by an observer who was unaware of the treatment administered. All the experimental procedures with mice were carried out under EU Directive 2010/63/EU and were approved by the Local Ethics Commission for Animal Experiments of Jagiellonian University in Krakow (Approval nos.:297/2019).
(§2) Compounds were injected once intraperitoneally (i.p.) 60 min before tests, at a volume of 10 mL/kg. Control animals received a vehicle injection according to the same schedule.
The FST experiment was carried out according to the method of Porsolt et al.[52] The total duration of immobility was recorded during the last 4 min of this 6 min period. The reduction of immobility time compared to the control was a measure of antidepressant properties of the tested compound. A mouse was regarded as immobile when it remained floating on water, making only small movements to keep its head above it.

The next series addresses dopamine D2LR (Homo sapiens, UniProt P14416). The series is described as follows: Radioligand binding assay, [3H]-raclopride displacement. The conditions noted are these: mean ± SD from two independent measurements; read-out: Ki D2. As to the method:
(§3) Cell pellets were thawed and homogenized in 10 vol of assay buffer using an Ultra Turrax tissue homogenizer and centrifuged twice at 35 000 g for 15 min at 4 °C, with incubation for 15 min at 37 °C in between. The composition of the assay buffers was as follows: for 5-HT1AR: 50 mM Tris HCl, 0.1 mM EDTA, 4 mM MgCl2, 10 μM pargyline and 0.1% ascorbate; for 5-HT2AR: 50 mM Tris HCl, 0.1 mM EDTA, 4 mM MgCl2 and 0.1% ascorbate; for 5- HT7bR: 50 mM Tris HCl, 4 mM MgCl2, […] and 0.1% ascorbate; and for dopamine D2LR: 50 mM Tris HCl, 1 mM EDTA, 4 mM MgCl2, 120 mM NaCl, 5 mM KCl, 1.5 mM CaCl2 and 0.1% ascorbate. All assays were incubated in a total volume of […] in 96-well microtiter plates for 1 h at 37 °C, except 5-HT2AR which was incubated at 27 °C. The process of equilibration was terminated by rapid filtration through Unifilter plates with a 96-well cell harvester, and radioactivity retained on the filters was quantified on a Microbeta plate reader (PerkinElmer, USA). For displacement studies, the assay samples contained as radioligands (PerkinElmer, USA): 2.5 nM [^3H]-8-OH-DPAT (135.2 Ci/mmol) for 5-HT1AR; 1 nM [3H]-ketanserin (53.4 Ci/mmol) for 5- HT2AR; 0.8 nM [3H]-5- CT (39.2 Ci/mmol) for 5-HT7R or 2.5 nM [3H]-raclopride (72 Ci/mmol) for D2LR. Nonspecific binding was defined with […] of 5-HT in 5-HT7R binding experiments, whereas […] were used in 5-HT2AR and D2L assays, respectively. Each compound was tested in triplicate at 7 concentrations (10^–10–10^–4 M). The inhibition constants (Ki) were calculated using the Cheng–Prusoff equation.[48] Results were expressed as means of at least two separate experiments.

The next series has as its system punished crossings. The series is described as follows: Four-plate test (FPT) in mice. It is filed as in vivo. Conditions: for increase of number of punished crossings vs vehicle: i.p., active doses. As for the experimental part:
as §1, §2
The four-plate apparatus (Bioseb, Pinellas Park, USA) was used for tests. Following a 15 s habituation period, the animal’s motivation to explore a novel environment is suppressed by an electric foot shock (0.8 mA, 0.5 s) every time it moves from one plate to another during a 1 min test session. This action is referred to as a “punished crossing” and is followed by a 3 s shock interval, during which the animal can move across plates without receiving a shock.[53]

Series [1] concerns the target T1, 5-HT7R (Homo sapiens, UniProt P34969). The experiment in a line: Radioligand binding assay, [3H]-5-CT displacement. The conditions noted are these: for Ki: mean ± SD from two independent measurements, read-out: Ki 5-HT7. As to the method:
as §3
Target sequence in this assay (P34969 1-432): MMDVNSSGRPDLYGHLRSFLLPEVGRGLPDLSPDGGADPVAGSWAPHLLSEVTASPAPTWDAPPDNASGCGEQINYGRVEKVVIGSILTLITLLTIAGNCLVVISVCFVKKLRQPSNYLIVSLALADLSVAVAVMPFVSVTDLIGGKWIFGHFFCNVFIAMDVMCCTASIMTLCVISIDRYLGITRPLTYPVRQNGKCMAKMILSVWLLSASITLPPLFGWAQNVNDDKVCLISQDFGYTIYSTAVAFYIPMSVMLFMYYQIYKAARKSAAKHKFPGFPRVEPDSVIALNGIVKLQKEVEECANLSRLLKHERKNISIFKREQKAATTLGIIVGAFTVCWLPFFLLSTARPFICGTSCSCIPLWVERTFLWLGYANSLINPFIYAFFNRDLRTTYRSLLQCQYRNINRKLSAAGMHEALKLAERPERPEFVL

For a further series, the system named is locomotor activity. The series is described as follows: Spontaneous locomotor activity in mice. Type of series: in vivo. As for the experimental part: as §1, §2
Locomotor activity was recorded with an Opto M3 multichannel activity monitor (Columbus Instruments, Columbus, USA). […] According to the 3Rs recommendations,[54] locomotor activity was assessed for the minimal active doses obtained in FST and/or FPT to ensure that detected antidepressant-/anxiolytic-like effects are not the result of increased motility of mice.

The target of the next series is T2, 5-HT1AR (Homo sapiens, UniProt P08908).
T2 sequence (P08908 1-422): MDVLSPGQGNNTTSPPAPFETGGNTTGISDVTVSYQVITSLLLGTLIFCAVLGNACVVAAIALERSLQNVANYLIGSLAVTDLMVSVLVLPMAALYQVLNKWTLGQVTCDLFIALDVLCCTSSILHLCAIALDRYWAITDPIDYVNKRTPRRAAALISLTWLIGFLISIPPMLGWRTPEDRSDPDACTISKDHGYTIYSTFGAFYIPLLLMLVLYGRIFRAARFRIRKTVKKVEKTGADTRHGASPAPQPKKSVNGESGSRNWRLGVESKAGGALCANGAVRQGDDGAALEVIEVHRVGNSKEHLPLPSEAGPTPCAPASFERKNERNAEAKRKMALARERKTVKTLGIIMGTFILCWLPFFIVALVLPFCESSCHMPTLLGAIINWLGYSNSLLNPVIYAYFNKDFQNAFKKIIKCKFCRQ
The series is described as follows: Radioligand binding assay, [3H]-8-OH-DPAT displacement. The conditions noted are these: mean ± SD from two independent measurements; read-out: Ki 5-HT1A. As to the method: as §3

The target in series [2] is T1, 5-HT7R. More on the design: method as in PMID 29439902, PMID 29425815, PMID 28886235, PMID 26900658. Conditions: earlier results for the racemic hits; read-out: 5-HT7R Ki of reference hit compounds; cited from earlier work.
Target sequence in this assay (P34969 1-432): as the sequence (P34969 1-432) above
The next series has as its target 5-HT2AR (Homo sapiens, UniProt P28223). The experiment in a line: Radioligand binding assay, [3H]-ketanserin displacement. Conditions: mean ± SD from two independent measurements; read-out: Ki 5-HT2A. As to the method: as §3
The subject of another series is GABA (non-specific). The experiment in a line: GABA (non-specific) binding screening at 1 µM (Eurofins Cerep). As for the experimental part: (§4) 1.In vitro evaluation towards another related protein target (GABA, NK 1)
(§5) Table S2. Affinity results to GABA and NK 1 […]
(§6) Screening at 1 µM Screening at 1 µM
(§7) (% inhibition of control (% of inhibtion of control agonist response) specific binding) […]
(§8) adata are presented as the mean ± SD from two independent measurements
(§9) The above biological screening have been performed at Eurofins Cerep (2, rue du Professeur GARGOUÏL, B.P. 30001, 86 600 Celle l'Evescault, France according to previously described […]
(§10) Tsuji, A. et al. (1988), Antimicrob. Agents Chemother., 32: 190-194.
(§11) Eistetter, H.R. et al. (1992), Glia, 6: 89-95.
(§12) Detailed parameters for NK1 assay:
(§13) Detailed parameters for GABA (non-specific) assay: […]

A further series concerns the target T3, NK1 (Homo sapiens, UniProt P25103).
T3 construct: Eurofins Cerep
The series is described as follows: NK1 screening at 1 µM (Eurofins Cerep). It is filed as cell-based. The conditions noted are these: read-out: NK1 % inhibition of control agonist response. As for the experimental part:
as §4, §5, §6, §7, §8, §9, §10, §11, §12, §13

Series [3] deals with T1, 5-HT7R. The series is described as follows: cAMP functional assay (HTRF), antagonist effect, CHO cells. It is filed as cell-based. As to the method:
The cAMP concentration was measured using the HTRF method. Adenylate cyclase activity was expressed as the percentage of the maximal effect obtained with 300 nM serotonin. The compounds were tested at 7 concentrations (10^–12–10^–6 M) in the h5-HT7 antagonist effect.
Target sequence in this assay (P34969 1-445 isoform P34969-2): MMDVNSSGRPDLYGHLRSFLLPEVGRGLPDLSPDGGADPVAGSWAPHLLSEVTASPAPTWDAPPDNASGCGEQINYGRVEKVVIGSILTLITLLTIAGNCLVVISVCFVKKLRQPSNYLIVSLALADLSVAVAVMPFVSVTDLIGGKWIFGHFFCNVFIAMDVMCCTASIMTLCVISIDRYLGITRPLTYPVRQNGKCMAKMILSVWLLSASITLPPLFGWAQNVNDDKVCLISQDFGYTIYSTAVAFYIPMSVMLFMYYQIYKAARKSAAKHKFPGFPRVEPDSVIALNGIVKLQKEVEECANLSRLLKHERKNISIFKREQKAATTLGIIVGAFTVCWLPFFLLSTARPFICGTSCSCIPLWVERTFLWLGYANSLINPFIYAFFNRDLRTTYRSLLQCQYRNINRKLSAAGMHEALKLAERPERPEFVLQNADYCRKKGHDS
(Time-resolved FRET reads energy transfer from a long-lived donor to a nearby acceptor.)

Each structure is given as a SMILES string. Like-named read-outs stand apart in the source and are kept apart here.

dopamine D2LR, sequence (P14416 whole entry): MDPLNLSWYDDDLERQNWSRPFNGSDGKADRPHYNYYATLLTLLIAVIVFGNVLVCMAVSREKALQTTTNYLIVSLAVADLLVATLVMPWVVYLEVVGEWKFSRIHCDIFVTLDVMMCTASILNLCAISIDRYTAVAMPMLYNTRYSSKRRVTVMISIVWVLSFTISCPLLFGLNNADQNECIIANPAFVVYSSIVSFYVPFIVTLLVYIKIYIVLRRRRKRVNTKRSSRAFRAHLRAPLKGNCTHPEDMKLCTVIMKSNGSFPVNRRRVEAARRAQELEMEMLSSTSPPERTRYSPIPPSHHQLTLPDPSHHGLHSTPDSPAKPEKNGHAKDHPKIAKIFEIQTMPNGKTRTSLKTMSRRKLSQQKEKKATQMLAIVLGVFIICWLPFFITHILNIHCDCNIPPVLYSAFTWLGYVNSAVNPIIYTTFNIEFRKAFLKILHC
T3 sequence (P25103 whole entry): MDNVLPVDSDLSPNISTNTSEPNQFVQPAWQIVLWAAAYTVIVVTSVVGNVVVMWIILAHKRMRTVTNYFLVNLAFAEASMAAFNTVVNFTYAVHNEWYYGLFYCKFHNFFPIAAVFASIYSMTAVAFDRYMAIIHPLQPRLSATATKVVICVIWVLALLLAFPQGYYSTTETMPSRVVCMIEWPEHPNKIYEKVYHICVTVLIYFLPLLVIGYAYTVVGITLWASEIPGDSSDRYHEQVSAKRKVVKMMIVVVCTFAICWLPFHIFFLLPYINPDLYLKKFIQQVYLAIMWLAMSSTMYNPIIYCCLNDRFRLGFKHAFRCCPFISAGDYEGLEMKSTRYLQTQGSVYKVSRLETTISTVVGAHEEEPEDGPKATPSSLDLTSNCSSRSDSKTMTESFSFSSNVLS
5-HT2AR, sequence (P28223 whole entry): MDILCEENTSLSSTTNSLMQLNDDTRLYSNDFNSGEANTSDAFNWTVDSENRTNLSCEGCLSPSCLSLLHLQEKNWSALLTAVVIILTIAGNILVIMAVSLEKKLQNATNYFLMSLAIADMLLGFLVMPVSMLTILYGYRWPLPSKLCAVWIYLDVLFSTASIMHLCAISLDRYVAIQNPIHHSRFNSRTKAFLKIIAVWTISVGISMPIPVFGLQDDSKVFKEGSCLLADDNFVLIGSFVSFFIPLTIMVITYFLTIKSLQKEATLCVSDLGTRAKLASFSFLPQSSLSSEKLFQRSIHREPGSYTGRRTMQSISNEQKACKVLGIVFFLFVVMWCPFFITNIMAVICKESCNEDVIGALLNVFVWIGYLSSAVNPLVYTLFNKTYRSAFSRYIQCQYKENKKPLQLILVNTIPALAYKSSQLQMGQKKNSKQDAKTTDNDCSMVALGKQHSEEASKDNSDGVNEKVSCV

One may read the Ki as a measure of affinity in units of concentration, obtained from inhibition or displacement. `CC1(c2ccc(F)cc2)NC(=O)N(CC(O)CN2CCN(C(c3ccccc3)c3ccccc3)CC2)C1=O` (stereo not drawn) [Compound 2]: the “decrease of immobility time vs vehicle” value is 25% in the series with immobility time (0.312 mg/kg i.p.); “about 40%” in the series on immobility time (0.63 mg/kg i.p.); “about 40%” in the series with immobility time (1.25 mg/kg i.p.); “about 40%” with immobility time (2.5 mg/kg i.p.); 26% in the series with immobility time (5 mg/kg i.p.). Also, the inhibitory constant (Ki) on dopamine D2LR is 0.261 ± 0.038 µM; on 5-HT7R [1], 0.079 ± 0.006 µM; on 5-HT1AR, 5.57 ± 1.41 µM; on 5-HT7R [2], less than 0.1 µM. For the same compound, the “increase of number of punished crossings” value in the series on punished crossings (2.5 mg/kg i.p.) came out at 62%. Besides, in the series with punished crossings, the “increase of number of punished crossings vs vehicle” value is given as “about 60%”. Moreover, the “locomotor activity number of crossings ± SEM during 3–6 min” value was 108.00 ± 42.04; NS with locomotor activity (0.312 mg/kg i.p.) and 211.50 ± 29.38; NS in the series on locomotor activity (2.5 mg/kg i.p.). Moreover, the “locomotor activity number of crossings ± SEM during 1 min” value in the series on locomotor activity (0.312 mg/kg i.p.) was 9.75 ± 5.45; NS; in the series with locomotor activity (2.5 mg/kg i.p.) it was 16.50 ± 6.12; NS. Besides, the “locomotor activity number of crossings ± SEM during 60 min” value is 702.75 ± 122.53; NS in the series on locomotor activity (0.312 mg/kg i.p.) and 2482.75 ± 587.23; NS in the series with locomotor activity (2.5 mg/kg i.p.).

The inhibition is the drop in the measured response relative to a control, in per cent. The IC50 is the concentration needed to halve the response being measured. Read a high IC50 as a need for much substance. In general, Kb refers to the affinity of an antagonist, worked out from how it opposes an agonist. Consider `C[C@@]1(c2ccc(F)cc2)NC(=O)N(C[C@H](O)CN2CCN(C(c3ccccc3)c3ccccc3)CC2)C1=O` [Compound 6.4, (S)-3-((R)-3-(4-Benzhydrylpiperazin-1-yl)-2-hydroxypropyl)-5-(4-fluorophenyl)-5-methylimidazolidine-2,4-dione], for which the Ki at 5-HT2AR is 5.79 ± 1.07 µM; at dopamine D2LR, 0.511 ± 0.096 µM; at 5-HT7R [1], 0.008 ± 0.003 µM; on 5-HT1AR, 8.93 ± 1.84 µM. In addition, in the series on immobility time (2.5 mg/kg i.p.), the “decrease of immobility time vs vehicle” value came to 29%. For the same compound, the anxiolytic-like activity entry is recorded as “did not reach significant levels” with punished crossings (5 mg/kg i.p.); “active” in the series on punished crossings (doses of 1.25, 2.5 and 10 mg/kg i.p.). Besides, the “increase of number of punished crossings vs vehicle” value in the series on punished crossings is reported as “about 60%”. For the same compound, at 5-HT7R [1] (ratio of Ki values), the “fold higher 5-HT7R affinity in comparison to 2” value is approximately 10 fold. Also, the “locomotor activity number of crossings ± SEM during 3–6 min” value is given as 63.75 ± 25.93; NS in the series on locomotor activity (1.25 mg/kg i.p.) and 105.75 ± 49.57; NS with locomotor activity (2.5 mg/kg i.p.). The “locomotor activity number of crossings ± SEM during 1 min” value in the series on locomotor activity (1.25 mg/kg i.p.) is 4.25 ± 0.46; NS. The “locomotor activity number of crossings ± SEM during 60 min” value was 694.25 ± 78.90; NS in the series with locomotor activity (1.25 mg/kg i.p.) and 922.50 ± 74.78; p < 0.001 in the series with locomotor activity (2.5 mg/kg i.p.). Besides, in the series with GABA (non-specific), the “GABA (non-specific) % of inhibition of control specific binding” value is on record as 26%. Moreover, the inhibition at 1 µM on NK1 was -4.4%. The “intrinsic activity at 5-HT7R” value at 5-HT7R [3] (cAMP functional test) was “antagonists”. On 5-HT7R [3] (cAMP, CHO cells, h5-HT7 antagonist effect vs 300 nM serotonin), the IC50 amounted to 0.113 ± 0.025 µM. At 5-HT7R [3] (cAMP, CHO cells, h5-HT7 antagonist effect, read-out: Kb ± SEM), the Kb amounted to 0.014 ± 0.003 µM.

These data come from PMC11587507, “The Importance of Stereochemistry in 5-HT7R Modulation—A Case Study of Hydantoin Derivatives” (ACS Chemical Neuroscience, 2024).
